# According to ChEMBL document CHEMBL1177708, “Design, synthesis, and biological evaluation of a novel class of gamma-secretase modulators with PPARgamma activity” (J Med Chem, 2010):
# pEC50, pIC50: −log10 of the molar value. The source made the active and inactive calls. No cut-off for these calls is given here.
# Assays:
# [1] = target: T1, Peroxisome proliferator-activated receptor gamma (Homo sapiens) (UniProt P37231); assay: Agonist activity at human PPARgamma-LBD expressed in COS7 cells co-transfected with Gal4 at 20 uM by luciferase based transactivation assay; type: functional, cell-based; details: COS-7
# T1 sequence (whole entry): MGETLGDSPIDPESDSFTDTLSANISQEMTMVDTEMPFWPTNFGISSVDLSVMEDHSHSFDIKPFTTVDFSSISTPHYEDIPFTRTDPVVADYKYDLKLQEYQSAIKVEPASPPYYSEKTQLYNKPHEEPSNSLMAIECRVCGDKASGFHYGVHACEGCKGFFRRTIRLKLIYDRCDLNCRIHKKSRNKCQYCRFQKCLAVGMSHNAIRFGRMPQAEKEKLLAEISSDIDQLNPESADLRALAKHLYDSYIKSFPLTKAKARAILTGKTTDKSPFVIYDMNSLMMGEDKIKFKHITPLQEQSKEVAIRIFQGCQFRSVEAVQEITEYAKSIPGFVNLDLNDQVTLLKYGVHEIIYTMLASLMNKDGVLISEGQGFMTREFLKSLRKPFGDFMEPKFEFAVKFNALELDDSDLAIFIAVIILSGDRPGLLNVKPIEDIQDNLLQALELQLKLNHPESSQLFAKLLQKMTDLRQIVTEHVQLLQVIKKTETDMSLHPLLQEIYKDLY
# [2] = Modulation of gamma-secretase-mediated cleavage of human APP expressed in CHO cells with human presenilin-1 assessed as activation of amyloid beta38 production after 24 hrs by ELISA; type: cell-based
# [3] = target: T2, Prostaglandin G/H synthase 2 (Homo sapiens) (UniProt P35354); assay: Inhibition of human recombinant COX2 assessed as residual activity at 10 uM after 5 mins
# T2 sequence (whole entry): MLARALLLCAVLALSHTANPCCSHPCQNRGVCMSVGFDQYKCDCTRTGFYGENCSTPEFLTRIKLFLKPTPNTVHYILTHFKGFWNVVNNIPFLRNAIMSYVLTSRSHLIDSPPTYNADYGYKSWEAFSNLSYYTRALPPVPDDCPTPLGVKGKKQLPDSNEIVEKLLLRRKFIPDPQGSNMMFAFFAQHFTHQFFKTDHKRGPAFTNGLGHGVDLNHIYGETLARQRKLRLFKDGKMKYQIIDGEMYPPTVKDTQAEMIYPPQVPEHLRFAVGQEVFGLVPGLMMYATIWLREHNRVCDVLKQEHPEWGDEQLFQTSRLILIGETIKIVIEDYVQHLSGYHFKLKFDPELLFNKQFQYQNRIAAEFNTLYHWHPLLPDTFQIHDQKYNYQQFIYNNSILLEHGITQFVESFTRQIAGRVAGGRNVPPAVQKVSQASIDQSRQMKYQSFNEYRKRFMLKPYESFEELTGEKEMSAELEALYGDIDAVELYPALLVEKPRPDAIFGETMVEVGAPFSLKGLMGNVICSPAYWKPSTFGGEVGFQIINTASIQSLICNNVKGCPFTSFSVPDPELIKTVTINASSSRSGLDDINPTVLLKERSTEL
# CHO [4] = assay: Cytotoxicity against CHO cells at 60 uM after 24 hrs by Alamar blue assay; type: cell-based, Cricetulus griseus; details: chinese hamster
# [5] = target: T3, Peroxisome proliferator-activated receptor alpha (Homo sapiens) (UniProt Q07869); assay: Agonist activity at human PPARalpha-LBD expressed in COS7 cells co-transfected with Gal4 at 10 uM by luciferase based transactivation assay; type: functional, cell-based; details: COS-7
# T3 sequence (whole entry): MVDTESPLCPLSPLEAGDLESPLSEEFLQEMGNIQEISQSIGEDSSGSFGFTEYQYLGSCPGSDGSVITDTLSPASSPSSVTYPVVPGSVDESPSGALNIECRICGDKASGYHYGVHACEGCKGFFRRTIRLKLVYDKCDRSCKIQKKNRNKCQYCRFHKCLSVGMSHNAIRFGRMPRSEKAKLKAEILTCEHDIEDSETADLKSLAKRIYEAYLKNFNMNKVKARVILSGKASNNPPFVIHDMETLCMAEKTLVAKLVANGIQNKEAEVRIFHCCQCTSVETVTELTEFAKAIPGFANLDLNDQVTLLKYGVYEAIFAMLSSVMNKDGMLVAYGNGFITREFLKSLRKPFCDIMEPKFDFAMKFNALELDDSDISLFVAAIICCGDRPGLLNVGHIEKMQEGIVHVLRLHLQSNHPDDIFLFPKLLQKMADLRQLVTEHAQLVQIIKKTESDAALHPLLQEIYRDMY
# [6] = target: T4, Prostaglandin G/H synthase 1 (Ovis aries) (UniProt P05979); assay: Inhibition of ovine COX1 assessed as residual activity at 10 uM after 5 mins
# T4 sequence (whole entry): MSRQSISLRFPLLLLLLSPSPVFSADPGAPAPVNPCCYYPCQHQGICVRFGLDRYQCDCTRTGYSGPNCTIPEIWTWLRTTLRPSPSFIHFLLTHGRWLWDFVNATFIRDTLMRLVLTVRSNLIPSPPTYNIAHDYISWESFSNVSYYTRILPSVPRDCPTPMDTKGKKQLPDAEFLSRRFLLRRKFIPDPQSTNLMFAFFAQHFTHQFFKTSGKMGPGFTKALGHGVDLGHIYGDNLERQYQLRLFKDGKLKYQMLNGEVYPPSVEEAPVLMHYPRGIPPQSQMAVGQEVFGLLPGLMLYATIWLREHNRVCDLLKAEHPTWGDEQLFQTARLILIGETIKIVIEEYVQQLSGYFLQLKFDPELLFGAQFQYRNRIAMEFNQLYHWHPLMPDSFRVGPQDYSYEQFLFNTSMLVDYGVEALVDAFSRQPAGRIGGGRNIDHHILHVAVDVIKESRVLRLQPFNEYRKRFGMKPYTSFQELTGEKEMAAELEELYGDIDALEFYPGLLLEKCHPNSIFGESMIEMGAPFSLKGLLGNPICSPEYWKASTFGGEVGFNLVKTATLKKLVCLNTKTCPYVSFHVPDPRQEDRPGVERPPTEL
# [7] = target: T5, Peroxisome proliferator-activated receptor delta (Homo sapiens) (UniProt Q03181); assay: Agonist activity at human PPARdelta-LBD expressed in COS7 cells co-transfected with Gal4 at 10 uM by luciferase based transactivation assay; type: functional, cell-based; details: COS-7
# T5 sequence (whole entry): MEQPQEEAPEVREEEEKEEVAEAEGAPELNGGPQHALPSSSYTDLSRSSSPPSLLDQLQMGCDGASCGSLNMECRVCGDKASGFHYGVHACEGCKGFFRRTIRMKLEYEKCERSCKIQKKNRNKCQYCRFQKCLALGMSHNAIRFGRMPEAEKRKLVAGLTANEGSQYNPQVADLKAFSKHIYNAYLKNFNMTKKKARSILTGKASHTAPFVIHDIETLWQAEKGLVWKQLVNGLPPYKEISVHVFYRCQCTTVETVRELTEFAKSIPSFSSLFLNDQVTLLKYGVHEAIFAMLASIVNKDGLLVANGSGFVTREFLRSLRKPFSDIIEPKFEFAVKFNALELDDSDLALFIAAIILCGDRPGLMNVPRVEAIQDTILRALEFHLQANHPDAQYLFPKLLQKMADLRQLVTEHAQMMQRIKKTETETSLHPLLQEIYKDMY
# cells = details: CHO, 24 h
# Description: Modulation of gamma-secretase-mediated cleavage of human APP expressed in CHO cells with human presenilin-1 assessed as inhibition of amyloid beta42 production after 24 hrs by ELISA
# [8] = target: T1, Peroxisome proliferator-activated receptor gamma (Homo sapiens); assay: Agonist activity at human PPARgamma-LBD expressed in COS7 cells co-transfected with Gal4 at 10 uM by luciferase based transactivation assay; type: functional, cell-based; details: COS-7
# [9] = target: T1, Peroxisome proliferator-activated receptor gamma (Homo sapiens); assay: Agonist activity at human PPARgamma-LBD expressed in COS7 cells co-transfected with Gal4 at 10 uM by luciferase based transactivation assay; details: COS-7
# [10] = target: T6, Prostaglandin G/H synthase 1 (Ovis aries, UniProt P05979)
# T6 sequence (P05979 whole entry): T4 sequence (whole entry)
# Description: Inhibition of ovine COX1 after 5 mins
# CHO [11] = assay: Modulation of gamma-secretase-mediated notch signaling expressed in CHO cells transfected with Gal4-DNA-binding/VP16 transactivation domain assessed as reduction of reporter activity at 0.5 uM after 24 hrs; type: cell-based
# [12] = target: T1, Peroxisome proliferator-activated receptor gamma (Homo sapiens); assay: Agonist activity at human PPARgamma-LBD expressed in COS7 cells co-transfected with Gal4 at 6 uM by luciferase based transactivation assay; type: functional, cell-based; details: COS-7
# [13] = target: T6, Prostaglandin G/H synthase 1; remark: listed apart in the source
# Description: Inhibition of ovine COX1 after 5 mins
# [14] = target: T1, Peroxisome proliferator-activated receptor gamma (Homo sapiens); assay: Agonist activity at human PPARgamma-LBD expressed in COS7 cells co-transfected with Gal4 by luciferase based transactivation assay relative to pioglitazone; type: functional, cell-based; details: COS-7
# [15] = target: T7, Peroxisome proliferator-activated receptor gamma (Homo sapiens, UniProt P37231); assay: Agonist activity at human PPARgamma-LBD expressed in COS7 cells co-transfected with Gal4 by luciferase based transactivation assay; type: functional, cell-based, COS-7
# T7 sequence (P37231 whole entry): T1 sequence (whole entry)
# CHO [16] = assay: Cytotoxicity against CHO cells at 40 uM after 24 hrs by Alamar blue assay; type: cell-based, Cricetulus griseus; details: chinese hamster
# CHO [17] = assay: Modulation of gamma-secretase-mediated notch signaling expressed in CHO cells transfected with Gal4-DNA-binding/VP16 transactivation domain assessed as reduction of reporter activity at 5 to 40 uM after 24 hrs; type: cell-based
Compound,Activity [1] [%],pEC50 [2],Activity [3] [%],Activity (CHO [4]),Activity [5],Activity [6] [%],Activity [7],pIC50 (cells),Activity [8] [%],Activity [9],IC50 [10],Activity (CHO [11]),Activity [12] [%],pIC50 [13],Emax [14] [%],pEC50 [15],Activity (CHO [16]),Activity (CHO [17])
CCCCC(Sc1nc(OCc2ccccc2)cc(OCc2ccccc2)n1)C(=O)O (stereo not given),31,4.62,61.6,Non-toxic,inactive,88.9,inactive,4.60,–,–,–,–,–,–,–,–,–,–
CCCC[C@@H](Sc1nc(OCCc2ccccc2)cc(OCCc2ccccc2)n1)C(=O)O,–,5.08,98.5,Non-toxic,inactive,73.9,inactive,4.67,22,–,–,–,–,–,–,–,–,–
O=C(O)C(Sc1nc(OCCc2ccccc2)cc(OCCc2ccccc2)n1)c1ccccc1 (stereo not given),–,4.89,86,Non-toxic,inactive,72.2,inactive,4.53,–,inactive,–,–,–,–,–,–,–,–
C[C@@H](C(=O)O)c1ccc(-c2ccccc2)c(F)c1 [TARENFLURBIL],–,–,–,–,–,–,–,3.52,–,–,Not Active,–,–,–,–,–,–,–
CCCCC(Sc1nc(OCCc2ccc(OC)cc2)cc(OCCc2ccc(OC)cc2)n1)C(=O)O (stereo not given),–,5.21,94.6,Non-toxic,inactive,72.8,inactive,4.71,23,–,–,–,–,–,–,–,–,–
CCCCC(Sc1nc(OCCC2CCCCCC2)cc(OCCC2CCCCCC2)n1)C(=O)O (stereo not given),–,5.72,50.1,Non-toxic,inactive,56.1,inactive,4.95,–,inactive,–,–,–,–,–,–,–,–
CC(C)C[C@H](NC(=O)[C@H](Cc1ccccc1)C[C@@H](O)[C@H](Cc1ccccc1)NC(=O)OC(C)(C)C)C(=O)N[C@@H](Cc1ccccc1)C(N)=O,–,–,–,–,–,–,–,–,–,–,–,Active,–,–,–,–,–,–
CCCCC(Sc1nc(OCCc2ccc([N+](=O)[O-])cc2)cc(OCCc2ccc([N+](=O)[O-])cc2)n1)C(=O)O (stereo not given),–,–,91.6,Non-toxic,inactive,82.1,inactive,4.51,–,–,–,–,33,–,–,–,–,–
CCCCC(Sc1nc(OCCc2ccc(C(F)(F)F)cc2)cc(OCCc2ccc(C(F)(F)F)cc2)n1)C(=O)O (stereo not given),–,5.74,69,25%,inactive,54.4,inactive,5.22,–,–,–,–,–,4.77,112,4.96,Non-toxic,inactive
CCCCC(Sc1nc(OCCc2ccsc2)cc(OCCc2ccsc2)n1)C(=O)O (stereo not given),32,4.76,102,Non-toxic,inactive,76.6,inactive,4.42,–,–,–,–,–,–,–,–,–,–
